Results reported in patent US7374920B2, “Ginkgo biloba levopimaradiene synthase” (priority 2001, dated 2008).
Entries after “also recorded” stand apart in the source; their conditions may differ.

Columns and labels:
[1] = tested on: G. biloba seedlings, plants, and trees; settings: cited from earlier work; for effect on diterpenoid content: cycloartenol synthase inhibitors (Huh, et al., 1993)
Levopimaradiene synthase = biological target: T1, Levopimaradiene synthase (Ginkgo biloba, UniProt Q947C4); test: levopimaradiene synthase activity towards geranyl diphosphate and farnesyl diphosphate; assay type: biochemical; settings: E. coli expression, 200 μM substrate, overnight at 32° C., GC or GC/MS
T1 construct: thioredoxin (from pET32c(+)); made in house; host or cells: E. coli BL21(DE3), soluble fraction of the lysate
T1 sequence (Q947C4 60-873): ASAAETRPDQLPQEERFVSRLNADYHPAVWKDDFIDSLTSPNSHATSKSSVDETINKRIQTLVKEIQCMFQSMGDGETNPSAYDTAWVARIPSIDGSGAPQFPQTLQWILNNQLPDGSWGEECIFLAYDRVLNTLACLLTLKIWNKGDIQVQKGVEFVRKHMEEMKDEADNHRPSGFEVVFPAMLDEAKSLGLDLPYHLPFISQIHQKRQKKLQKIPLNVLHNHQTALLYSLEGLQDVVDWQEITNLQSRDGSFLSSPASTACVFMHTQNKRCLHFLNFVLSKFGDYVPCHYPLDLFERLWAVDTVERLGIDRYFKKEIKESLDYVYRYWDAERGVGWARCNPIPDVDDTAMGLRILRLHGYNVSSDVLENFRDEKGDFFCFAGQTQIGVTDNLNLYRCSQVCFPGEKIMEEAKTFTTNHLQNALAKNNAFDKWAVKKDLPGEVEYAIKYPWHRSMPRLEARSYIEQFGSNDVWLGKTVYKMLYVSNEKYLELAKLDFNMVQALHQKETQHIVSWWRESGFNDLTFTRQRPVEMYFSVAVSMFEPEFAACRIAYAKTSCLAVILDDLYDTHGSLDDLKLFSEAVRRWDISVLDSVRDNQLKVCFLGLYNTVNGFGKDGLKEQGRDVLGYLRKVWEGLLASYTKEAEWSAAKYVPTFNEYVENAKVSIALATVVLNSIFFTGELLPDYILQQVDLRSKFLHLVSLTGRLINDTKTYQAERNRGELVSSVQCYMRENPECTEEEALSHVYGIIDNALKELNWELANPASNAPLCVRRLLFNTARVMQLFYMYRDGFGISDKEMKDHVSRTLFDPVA
Experimental: Levopimaradiene synthase was also tested for activity towards 200 μM geranyl diphosphate and farnesyl diphosphate. Cell cultures were induced and lysed as noted above. The soluble fraction of the lysate was incubated overnight at 32° C. with 200 μM substrate in 30 mM HEPES, pH 7.2, 5 mM DTT, 5% glycerol, 2 mM MgCl2 and 500 μM MnCl2, and overlaid with hexane (1 mL).
(§1) All in vitro reactions were extracted 3× with hexane and dried over MgSO4. The reaction was further extracted twice with diethyl ether and dried over MgSO4. Thereafter, the crude lysate was suspended in 100 mM Tris, pH 8.0 containing 2.9 units/mg apyrase (a dephosphorylating agent) and 10 units/μL calf intestinal alkaline phosphatase, incubated at 30° C. for 3 hours, and extracted with diethyl ether as noted above (Croteau and Cane, 1985). The crude reaction mixtures were eluted over SiO2, concentrated, and analyzed by GC and GC/MS.
Gas chromatography spectra were obtained on a Hewlett Packard 6890 Series GC System equipped with an Rtx-5 capillary column (Restek, 30 m×0.25 mm i.d., 0.10 μm df). The following separation conditions and temperature program were employed: injector port 250° C., FID 250° C., split ratio 39:1, helium flow 20 cm/s (0.6 mL/min), 150° C. hold 5 min, increase to 250° C. (5° C./min), hold 5 min. […]

[2] = in vitro assay of levopimaradiene synthase constructs expressed in wild-type S. cerevisiae JBY575; assay type: biochemical, Saccharomyces cerevisiae; settings: wild-type S. cerevisiae JBY575, galactose 48 hours, lysate with GGDP
Experimental: Expression in S. cerevisiae JBY575, which represents wild-type yeast, was observed. JBY575 cells transformed with pRS426GAL inserted with the putative levopimaradiene synthase were grown in synthetic complete medium lacking uracil and supplemented with 2% glucose and 1.5% agar at 30° C. to saturation and induced with galactose for 48 hours. Cells were harvested, resuspended in lysis buffer, and mixed by vortexing over glass beads. The lysate was assayed with 60 μM GGDP in the presence and absence of 0.2% and 5% Triton X-100.
as §1
(§2) Gas chromatography spectra were obtained on a Hewlett Packard 6890 Series GC System equipped with an Rtx-5 capillary column (Restek, 30 m×0.25 mm i.d., 0.10 μm df). The following separation conditions and temperature program were employed: injector port 250° C., FID 250° C., split ratio 39:1, helium flow 20 cm/s (0.6 mL/min), 150° C. hold 5 min, increase to 250° C. (5° C./min), hold 5 min. GC/MS spectra were obtained on a Hewlett-Packard 5890A instrument with a 30-m DB-5 ms column (J&W Scientific Inc., 0.25 mm i.d., 0.10 μm df). The following separation conditions and temperature program were employed: injector port 280° C., transfer lines: 280° C., helium flow at 30 cm/s (1 mL/min) with splitless injection at 150° C. hold 3 min, increase to 250° C. (5° C./min), hold 5 min. Mass spectra (m/z 50 to 500) were obtained on a VG ZAB-HF reverse-geometry double-focusing instrument at 70 eV with an electron-impact ion source (200° C.). Accelerating voltage was set to 8 kV and the resolution was 1000 (10% valley).
(§3) The skilled artisan recognizes that lysis and assay conditions should be optimized. Examples of parameters that can be adjusted to optimize conditions include altering buffer, pH, reductant, reductant concentration, metal cofactors, cofactor concentrations, glycerol concentrations, substrate concentrations, and assay temperatures. […] Maximum soluble protein production and diterpene yield were obtained with the following conditions. Cell cultures were induced with 1 mM IPTG at 20° C. with shaking for 6 hours and lysed by sonication in 30 mM HEPES, pH 7.2, 5 mM DTT, and 5% glycerol. The soluble fraction of the lysate (100 mg/1 mL) was incubated with 20 μM GGDP in 30 mM HEPES, pH 7.2, 5 mM DTT, 5% glycerol, 2 mM MgCl2, and 500 μM MnCl2 overnight at 32° C. Yeast expression was induced with galactose at 30° C. for 48 hours and the cells were lysed and assayed according to the conditions noted.

[3] = in vitro enzymatic assay of levopimaradiene synthase constructs expressed in E. coli BL21(DE3); assay type: biochemical, Escherichia coli; settings: E. coli BL21(DE3), soluble lysate fraction, 20 μM GGDP, overnight at 32° C., GC and GC/MS
Experimental: The desired plasmids were prepared by ligating the mutated gene insert into the similarly digested vectors pET32c(+) (Novagen; Madison, Wis.) and pRS426GAL (Hua, 2000), a multiple copy yeast expression vector. These plasmids was expressed in E. coli BL21(DE3) (Novagen; Madison, Wis.). E. coli cells were grown in Luria-Bertani medium supplemented with 100 μg/mL ampicillin at 37° C. with shaking to OD600 ˜0.6. The following parameters were tested: isopropyl 1-thio-β-D-galactopyranoside (IPTG) concentration (50, 100, 250, 500, and 1000 μM); and temperature and time (20° C. for 2, 3, 4, 6, 21 hours, 22° C. for 6, 8, 16, 19, 22, 45 hours, and 30° C. for 3, 6 hours). The following assay conditions were tested to obtain maximum diterpene product yield: 30 mM HEPES (N-2-hydroxyethylpiperazine-N′-[…]), pH 6.9, 7.2, 7.6, 8.0; 30 mM Tris (tris(hydroxymethyl)aminomethane hydrochloride), pH 7.4, 7.8, 8.2; 1, 5, 10% glycerol; 1, 3, 5, 10, 20 mM DTT (dithiothreitol); 20 mM β-mercaptoethanol; 2, 5, 8% Triton X-100; 5% Tween 80; 0, 2, 7.5, 20, 50 mM MgCl2; 0, 30, 500, 1000 μM MnCl2; 2, 10, 13.3, 20, 40, 80, 200 μM GGDP; and 23° C. and 32° C. assay temperatures.
Optimal soluble protein production and diterpene yield were obtained with the following conditions. Cell cultures were induced with 1 mM IPTG at 20° C. with shaking for 6 hours and lysed by sonication in 30 mM HEPES, pH 7.2, 5 mM DTT, and 5% glycerol. The soluble fraction of the lysate (100 mg/mL) was incubated with 20 μM GGDP in 30 mM HEPES, pH 7.2, 5 mM DTT, 5% glycerol, 2 mM MgCl2, and 500 μM MnCl2 overnight at 32° C.
as §1, §2
as §3, with “Yeast expression was induced with galactose at 30° C. for 48 hours and the cells were lysed and assayed according to the conditions noted.” left out

EHY18 yeast cells = test: in vivo expression of GbLS constructs in yeast strain EHY18 that accumulates GGDP, GC quantitation of products; assay type: cell-based; settings: GC, GC/MS
Experimental: The yeast strain of the copending application employed was EHY18 (Hart, E., 2001) which was further transformed with multiple-copy yeast expression vectors comprising an isolated and purified nucleic acid sequence of GbLS or derivatives thereof, which are described herein under control of the GAL1 inducible promoter. Yeast cells were grown to saturation in 5 mL ScD-Leu-Ura at 30° C. Cells were harvested (1300×g, 2 min, 25° C.) and resuspended in 500 μL sterile Milli-Q H2O (2×). The washed cells were resuspended in 5 mL sterile Milli-Q H2O. An aliquot of the culture (5 μL) was added to a 25 mL Corex tube containing pre-prepared 2× resin and 5 mL ScG-Leu-Ura (4% galactose) and shaken at 30° C. for 6 days. Resin was collected by filtration through a Kontes chromatography column (1.7 cm diameter) and rinsed with dI H2O until eluent was clear. The resin was incubated in 2 mL ethanol for several minutes, eluted, and repeated 2×. The combined eluents were dissolved in approximately 3 mL dI H2O and extracted (3×) with 3 mL hexane. The combined extracts were concentrated under a stream of nitrogen. GC analysis (quantitation extrapolated from 0.2 mg/mL longifolene external standard) indicated the following product profile (obtained from triplicate measurement of three cultures): 0.61±0.20 mg/L levopimaradiene, 0.04±0.01 mg/L abietadiene, 0.15±0.05 mg/L abietatriene, 0.16±0.13 mg/L (+)-copalol, and 1.79±0.90 mg/L geranylgeraniol. GC/MS fragmentation confirmed the identity of each compound.
A large scale culture (1-L) was prepared by growing the yeast cells to saturation in 5 mL ScD-Leu-Ura at 30° C. Cells were harvested (1300×g, 2 min, 25° C.) and resuspended in 500 μL sterile Milli-Q H2O (2×). The washed cells were resuspended in 5 mL sterile Milli-Q H2O. An aliquot of the culture (1 mL) was added to a 2 L flask containing 1-L ScG-Leu-Ura (4% galactose) and 88.27 g resin in 120 mL Milli-Q H2O (pre-prepared). The resin was eluted with ethanol (3×100 mL with 20 min incubation periods), which was subsequently extracted (6×) with hexane. The combined extracts were dried over magnesium sulfate, filtered, and concentrated under reduced pressure. GC analysis (quantitation extrapolated from 0.2 mg/mL longifolene external standard) indicated the following product profile (obtained from triplicate measurement): 0.29±0.04 mg/L levopimaradiene, 0.04±0.02 mg/L abietadiene, 0.13±0.04 mg/L abietatriene, 0.11±0.02 mg/L (+)-copalol, and 0.56±0.03 mg/L geranylgeraniol. GC/MS analyses confirmed the production of the above noted diterpenes, which included hydrocarbons and an alcohol.
Further optimization studies employed the Ser61 construct. Factors influencing diterpene production included induction period and concentration of galactose and resin in the inducing medium.

Cc1cc(OC(=O)N2CCCCC2)c(C(C)C)cc1[N+](C)(C)C.[Cl-] [AMO-1618]
effect on diterpenoid content [1]: Variable results

COc1ccc(C(O)(c2cncnc2)C2CC2)cc1 (stereo not shown) [ancymidol]
effect on diterpenoid content [1]: Variable results

CC(C)=CCC/C(C)=C/COP(=O)(O)OP(=O)(O)O [geranyl diphosphate]
terpene formation from alternative substrate (Levopimaradiene synthase): did not produce any identifiable terpenes

fluridone
increase in ginkgolides ([1]; application to G. biloba (Huh, et al., 1993)): up to 78%

B1: Phe^129: Ginkgo biloba levopimaradiene synthase truncated at Cys^127-Met^128, referred to as Phe^129; SEQ.ID.NO:39 (protein, listed as Ginkgo biloba)
chain: MFQSMGDGETNPSAYDTAWVARIPSIDGSGAPQFPQTLQWILNNQLPDGSWGEECIFLAYDRVLNTLACLLTLKIWNKGDIQVQKGVEFVRKHMEEMKDEADNHRPSGFEVVFPAMLDEAKSLGLDLPYHLPFISQIHQKRQKKLQKIPLNVLHNHQTALLYSLEGLQDVVDWQEITNLQSRDGSFLSSPASTACVFMHTQNKRCLHFLNFVLSKFGDYVPCHYPLDLFERLWAVDTVERLGIDRYFKKEIKESLDYVYRYWDAERGVGWARCNPIPDVDDTAMGLRILRLHGYNVSSDVLENFRDEKGDFFCFAGQTQIGVTDNLNLYRCSQVCFPGEKIMEEAKTFTTNHLQNALAKNNAFDKWAVKKDLPGEVEYAIKYPWHRSMPRLEARSYIEQFGSNDVWLGKTVYKMLYVSNEKYLELAKLDFNMVQALHQKETQHIVSWWRESGFNDLTFTRQRPVEMYFSVAVSMFEPEFAACRIAYAKTSCLAVILDDLYDTHGSLDDLKLFSEAVRRWDISVLDSVRDNQLKVCFLGLYNTVNGFGKDGLKEQGRDVLGYLRKVWEGLLASYTKEAEWSAAKYVPTFNEYVENAKVSIALATVVLNSIFFTGELLPDYILQQVDLRSKFLHLVSLTGRLINDTKTYQAERNRGELVSSVQCYMRENPECTEEEALSHVYGIIDNALKELNWELANPASNAPLCVRRLLFNTARVMQLFYMYRDGFGISDKEMKDHVSRTLFDPVA
diterpene product on yeast expression [2]: failed to produce observable levels of any diterpene product; also recorded: failed to produce detectable levels of biosynthetic product | diterpene product on bacterial expression [3]: failed to produce detectable levels of any diterpene; also recorded: complete loss of enzymatic activity | diterpene products on expression in EHY18 (EHY18 yeast cells): no diterpene alcohol or hydrocarbon formation
